The supplement of paper PMC10307832

Each cell line was assayed with CC[C@@H]1C(=O)N(C)c2cnc(Nc3ccc(C(=O)NC4CCN(C)CC4)cc3OC)nc2N1C1CCCC1 [BI-2536] + N=C(N)NC(=N)NCCc1ccccc1 [Phenformin] (partner 250 µM) (assay: relative viability (nuclei count vs DMSO), 5 days (fraction); higher = more cells survive). Settings: first compound 0.01 µM.
Outline: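 Lung cancer cell lines in 1536-well plates got either a single drug or a fixed anchor-drug dose together with five library-drug doses (not always all listed) in √10 steps, by pin tool, on the day after seeding. Nuclei were counted after 5 days, and relative viability is the treated-to-vehicle ratio of nuclei counts. Values are medians of duplicate plates.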

Cell Line	relative viability
SW 1573	0.333
NCI-H838	0.571
LCLC-103H	0.306
NCI-H520	0.572
NCI-H2126	0.5
EMC-BAC-2	0.547
NCI-H2085	0.785
HCC-366	0.67
NCI-H1666	0.564
NCI-H596	0.729
LK-2	0.473
NCI-H2087	0.477
NCI-H2342	0.547
SK-MES-1	0.704
H3255	0.3
COR-L23	0.434
COR-L 105	0.507
LOU-NH91	0.706
ChaGo-K-1	0.492
NCI-H2170	0.435
A549	0.143
NCI-H1563	0.719

Same assay, conditions: first compound 0.03162 µM

Cell Line	relative viability
NCI-H522	0.641
NCI-H1623	0.54
NCI-H727	0.527
NCI-H1650	0.3
NCI-H1993	0.432
SW 1573	0.283
NCI-H838	0.329
LCLC-103H	0.338
NCI-H520	0.408
NCI-H2126	0.495
EMC-BAC-2	0.477
NCI-H2085	0.69
HCC-366	0.605
NCI-H1666	0.576
NCI-H596	0.737
LK-2	0.362
NCI-H2087	0.503
NCI-H2342	0.586
SK-MES-1	0.626
H3255	0.318
COR-L23	0.371
COR-L 105	0.483
LOU-NH91	0.662
ChaGo-K-1	0.507
NCI-H2170	0.413
A549	0.132
NCI-H1563	0.63

Same assay, conditions: first compound 0.1 µM

Cell Line	relative viability
NCI-H522	0.404
NCI-H1623	0.556
NCI-H727	0.386
NCI-H1650	0.166
NCI-H1993	0.52
SW 1573	0.131
NCI-H838	0.116
LCLC-103H	0.295
NCI-H520	0.218
NCI-H2126	0.231
EMC-BAC-2	0.352
NCI-H2085	0.307
HCC-366	0.256
NCI-H1666	0.435
NCI-H596	0.917
LK-2	0.165
NCI-H2087	0.173
NCI-H2342	0.649
SK-MES-1	0.209
H3255	0.306
COR-L23	0.116
COR-L 105	0.311
LOU-NH91	0.583
ChaGo-K-1	0.238
NCI-H2170	0.34
A549	0.0229
NCI-H1563	0.683

Same assay, conditions: first compound 0.3162 µM

Cell Line	relative viability
NCI-H522	0.446
NCI-H1623	0.445
NCI-H727	0.319
NCI-H1650	0.141
NCI-H1993	0.41
SW 1573	0.106
NCI-H838	0.116
LCLC-103H	0.152
NCI-H520	0.255
NCI-H2126	0.279
EMC-BAC-2	0.155
NCI-H2085	0.183
HCC-366	0.0215
NCI-H1666	0.313
NCI-H596	0.358
LK-2	0.15
NCI-H2087	0.0945
NCI-H2342	0.283
SK-MES-1	0.162
H3255	0.268
COR-L23	0.0966
COR-L 105	0.215
LOU-NH91	0.273
ChaGo-K-1	0.158
NCI-H2170	0.167
A549	0.0377
NCI-H1563	0.525

Same assay, conditions: first compound 1 µM

Cell Line	relative viability
NCI-H522	0.401
NCI-H1623	0.588
NCI-H727	0.313
NCI-H1650	0.134
NCI-H1993	0.475
SW 1573	0.0811
NCI-H838	0.105
LCLC-103H	0.143
NCI-H520	0.281
NCI-H2126	0.247
EMC-BAC-2	0.208
NCI-H2085	0.243
HCC-366	0.0251
NCI-H1666	0.341
NCI-H596	0.245
LK-2	0.163
NCI-H2087	0.102
NCI-H2342	0.341
SK-MES-1	0.167
H3255	0.329
COR-L23	0.0886
COR-L 105	0.21
LOU-NH91	0.252
ChaGo-K-1	0.148
NCI-H2170	0.202
A549	0.0372
NCI-H1563	0.498
